According to patent US20200270233A1, “DHFR INHIBITORS, COMPOSITIONS, AND METHODS RELATED THERETO” (Vyera Pharmaceuticais LLC, priority 2017, published 2020):
pIC50: −log10 of the molar value. Where two headings read alike, the source gives them in different places.

Tests used:
hDHFR = target: T1, hDHFR (Homo sapiens, UniProt P00374); assay type: biochemical; conditions: pIC50 = -log10 IC50, at least three replicates, read-out: hDHFR pIC50-DHFR primary assay (converted)
T1 sequence (P00374 1-187): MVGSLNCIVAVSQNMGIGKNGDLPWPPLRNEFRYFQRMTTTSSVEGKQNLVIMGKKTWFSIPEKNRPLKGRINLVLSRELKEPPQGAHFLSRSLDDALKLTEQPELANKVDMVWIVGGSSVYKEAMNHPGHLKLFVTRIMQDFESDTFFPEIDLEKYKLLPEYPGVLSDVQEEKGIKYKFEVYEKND

T. gondii DHFR (tgDHFR) = target: T2, T. gondii DHFR (tgDHFR) (Toxoplasma gondii, UniProt Q07422); assay: biochemical
T2 sequence (Q07422 1-610): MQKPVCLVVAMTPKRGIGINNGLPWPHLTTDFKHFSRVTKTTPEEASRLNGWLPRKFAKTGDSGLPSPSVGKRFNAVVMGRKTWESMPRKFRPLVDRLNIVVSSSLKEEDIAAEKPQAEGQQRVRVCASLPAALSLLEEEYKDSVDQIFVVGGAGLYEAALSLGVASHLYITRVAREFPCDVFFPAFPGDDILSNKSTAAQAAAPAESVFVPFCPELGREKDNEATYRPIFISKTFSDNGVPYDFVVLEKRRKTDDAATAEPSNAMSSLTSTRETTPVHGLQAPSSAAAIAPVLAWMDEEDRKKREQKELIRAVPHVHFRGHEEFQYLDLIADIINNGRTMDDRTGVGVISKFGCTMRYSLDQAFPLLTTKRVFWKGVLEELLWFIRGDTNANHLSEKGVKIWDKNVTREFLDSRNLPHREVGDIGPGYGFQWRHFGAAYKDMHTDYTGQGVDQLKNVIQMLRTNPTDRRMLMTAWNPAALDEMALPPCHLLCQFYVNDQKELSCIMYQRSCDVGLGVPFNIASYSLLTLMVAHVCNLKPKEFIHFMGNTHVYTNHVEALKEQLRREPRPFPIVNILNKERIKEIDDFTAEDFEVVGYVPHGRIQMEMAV

[1] = test system: P. falciparum DHFR (pfDHFR); assay type: biochemical; conditions: Table 20; hDHFR IC50/pfDHFR IC50
[2] = target: P. falciparum DHFR (pfDHFR) (Plasmodium falciparum, UniProt P13922); assay type: biochemical; conditions: Table 20; pIC50 = -log10 IC50; at least three replicates
P. falciparum DHFR (pfDHFR) (Plasmodium falciparum, UniProt P13922), sequence (P13922 whole entry R59C/N108S, form open): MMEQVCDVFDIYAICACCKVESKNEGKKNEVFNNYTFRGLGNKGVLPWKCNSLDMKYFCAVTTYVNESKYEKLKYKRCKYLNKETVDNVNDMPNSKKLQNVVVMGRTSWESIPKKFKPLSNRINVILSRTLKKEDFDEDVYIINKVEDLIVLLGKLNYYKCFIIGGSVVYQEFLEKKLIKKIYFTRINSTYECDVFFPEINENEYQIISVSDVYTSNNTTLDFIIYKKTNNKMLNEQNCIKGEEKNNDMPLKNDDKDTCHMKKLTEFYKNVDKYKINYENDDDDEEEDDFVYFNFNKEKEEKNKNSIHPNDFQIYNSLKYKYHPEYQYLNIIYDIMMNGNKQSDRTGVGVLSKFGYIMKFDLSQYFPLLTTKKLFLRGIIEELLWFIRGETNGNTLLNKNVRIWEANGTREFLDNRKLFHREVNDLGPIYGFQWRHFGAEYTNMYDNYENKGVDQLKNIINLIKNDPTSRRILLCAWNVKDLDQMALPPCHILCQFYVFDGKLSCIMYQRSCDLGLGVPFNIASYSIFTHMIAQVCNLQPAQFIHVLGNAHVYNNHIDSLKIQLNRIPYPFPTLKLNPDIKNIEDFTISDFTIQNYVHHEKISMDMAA

CCCc1nc(N)nc(N)c1N1CCN(c2ccccc2)CC1 [Compound 49, 5-(4-phenylpiperazin-1-yl)-6-propylpyrimidine-2,4-diamine]
IC50 (hDHFR; Table 16): 9.12 µM
IC50 (hDHFR; Table 20): 11.2 µM
pIC50 (T. gondii DHFR (tgDHFR)): 7.74
Average DHFR selectivity (h/pf)* − DHFR IC50 [1]: 806
pfDHFR pIC50-DHFR primary assay [2]: 7.85
